Patent US7144856B2, “Inhibitors of dipeptidyl peptidase I” (Probiodrug AG, priority 2001, dated 2006)
Where a name gives a salt, the structure may show the parent alone.

T1: DP I (Rattus norvegicus, UniProt P80067)
T1 sequence (P80067 with tags, fused parts or gaps): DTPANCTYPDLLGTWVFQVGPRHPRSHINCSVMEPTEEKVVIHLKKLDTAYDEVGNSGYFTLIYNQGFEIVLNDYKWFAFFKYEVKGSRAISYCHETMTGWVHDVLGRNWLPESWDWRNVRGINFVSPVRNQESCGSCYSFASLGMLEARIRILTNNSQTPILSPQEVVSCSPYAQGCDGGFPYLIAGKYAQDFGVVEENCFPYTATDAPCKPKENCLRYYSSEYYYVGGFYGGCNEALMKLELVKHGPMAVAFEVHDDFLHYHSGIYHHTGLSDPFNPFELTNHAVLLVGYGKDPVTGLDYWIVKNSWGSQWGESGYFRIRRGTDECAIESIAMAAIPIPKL

T2: cathepsin H (Homo sapiens, UniProt P09668)
T2 sequence (P09668 98-335): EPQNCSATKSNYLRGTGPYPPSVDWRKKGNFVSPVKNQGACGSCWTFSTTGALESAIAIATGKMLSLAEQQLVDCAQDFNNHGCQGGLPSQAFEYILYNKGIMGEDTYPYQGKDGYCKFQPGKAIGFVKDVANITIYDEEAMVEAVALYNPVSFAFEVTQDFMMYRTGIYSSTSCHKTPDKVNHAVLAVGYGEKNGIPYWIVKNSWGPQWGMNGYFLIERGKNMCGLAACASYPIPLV

B1: stefin A (protein, UniProt P01040 1-98, looked up)
Cystatin-A: MIPGGLSEAKPATPEIQEIVDKVKPQLEEKTNETYGKLEAVQYKTQVVAGTNYYIKVRAGDNKYMHLKVFKSLPGQNEDLVLTGYQVDKNKDDELTGF
B2: chicken cystatin (protein, UniProt P01038 24-139, looked up)
Cystatin: SEDRSRLLGAPVPVDENDEGLQRALQFAMAEYNRASNDKYSSRVVRVISAKRQLVSGIKYILQVEIGRTTCPKSSGDLQSCEFHDEPEMAKYTTCTFVVYSIPWLNQIKLLESKCQ

What was measured:
[1] = target: T1, DP I; conditions: background, literature; cited from earlier work
[2] = target: T3, DP I (Rattus norvegicus, UniProt P80067); assay: determination of second order rate constant kinact/Ki for DP I; assay type: biochemical; conditions: substrate Gly-Arg-pNA 1 mM and 0.5 mM
T3 construct: purchased Qiagen
Experimental: For the Ki-value determination a UV-spectrophotometer (Lambda 20, PerkinElmer, Überlingen, Germany) was used. The reaction was monitored via the p-nitroaniline released from the substrate (Gly-Arg-pNA) at λ=390 nm. DP I (1 U/mg, assay condition: Tagzyme handbook, Qiagen, Hilden, Germany) was diluted in MES-buffer (1:1000) and preincubated and activated for 30 min on crashed ice. The reaction mixture consists: 500 μl stock solution MES-buffer, 500 μl HCl*Gly-L-Arg-pNA, 250 μl inhibitor, 50 μl DP I. In order to calculate the second order rate constant (kinact/Ki) two substrate concentrations (1 mM and 0.5 mM in the incubation mixture) were combined with 6 inhibitor concentrations (5*10^−7 M to 3*10^−8 M in the assay). From the product-time-course the observed first order rate constant was determined.
Plotting 1/kobs versus substrate concentration allows the calculation of the real first order rate constant of inactivation for each inhibitor concentration at [S]=0.
Based on this equation Ki and kinact can be determined.

[3] = system: L-929 (murine fibroblast cell line); assay: cytotoxicity assay, L-929 cells; assay type: cell-based; conditions: 24 hours incubation
Experimental: (§1) The toxicological potential of the compounds provided therein against murine cell lines is different from their toxicological potential against human cell lines. Selected compounds, based on the general formula (II) above, were tested concerning their cytotoxicological potential against the two cell-lines, L-929 (murine fibroblast cell line) and Hep-G2 (human hepatocyte cell line) cells.
(§2) HEP-G2, a human hepatocyte cell line (ACC180) and L-929, a mouse fibroplast cell line (ACC2) were grown in RPMI 1604 with 10% fetal bovine serum and 60 μg/ml gentamycin.
(§3) All cultures were fed every 2–3 days and incubated in an humified chamber at 37° C. and 5% CO2. For determining the cytotoxicity of different DPI-inhibitors, we used the CytoTox96™ Non-radioactive Cytotoxicity Assay (Promega, Madison, Wis., USA). HEP-G2 (30000 cells per well) and L-929 (20000 cells per well) were placed in 96 well plates in RPMI 1604 with 10% fetal bovine serum and grown for 24 hours. The cells were then incubated with various concentrations of different DPI-inhibitors for 24 hours in RPMI 1604 with 10% fetal bovine serum. One hour after addition of MTS-solution, the reaction was stopped by adding stop-solution of Promega. The absorbance was measured at 490 nm with a spectrophotometer. All experiments were performed twice simultaneously in three wells.

[4] = system: Hep-G2 (human hepatocyte cell line); assay: cytotoxicity assay, Hep-G2 cells; assay type: cell-based; conditions: 24 hours incubation
Experimental: as §1, §2, §3

[5] = target: cathepsin B (Homo sapiens, UniProt P07858); assay: cross-reactivity against cathepsin B, IC50; assay type: biochemical; conditions: n.i. = no inhibition; read-out: IC50 Cath. B
Experimental: (§4) Selected compounds, based on the general formula (II) below, were tested concerning their inhibitory potential against DP I and for their cross-reactivity against three more cysteine proteases, namely cathepsin B, H, L and another dipeptidyl peptidase, dipeptidyl peptidase IV (DP IV).

[6] = target: dipeptidyl peptidase IV (DP IV) (Homo sapiens, UniProt P27487); assay: cross-reactivity against dipeptidyl peptidase IV, IC50; assay type: biochemical; conditions: n.i. = no inhibition
Experimental: as §4

[7] = target: cathepsin L (Homo sapiens, UniProt P07711); assay: cross-reactivity against cathepsin L, IC50; assay type: biochemical; conditions: n.i. = no inhibition; read-out: IC50 Cath. L
Experimental: as §4

[8] = target: T2, cathepsin H; assay: cross-reactivity against cathepsin H, IC50; assay type: biochemical; conditions: n.i. = no inhibition; for IC50: read-out: IC50 Cath. H
Experimental: as §4

Chain of dipeptidyl peptidase IV (DP IV) (P27487 whole entry, species assumed): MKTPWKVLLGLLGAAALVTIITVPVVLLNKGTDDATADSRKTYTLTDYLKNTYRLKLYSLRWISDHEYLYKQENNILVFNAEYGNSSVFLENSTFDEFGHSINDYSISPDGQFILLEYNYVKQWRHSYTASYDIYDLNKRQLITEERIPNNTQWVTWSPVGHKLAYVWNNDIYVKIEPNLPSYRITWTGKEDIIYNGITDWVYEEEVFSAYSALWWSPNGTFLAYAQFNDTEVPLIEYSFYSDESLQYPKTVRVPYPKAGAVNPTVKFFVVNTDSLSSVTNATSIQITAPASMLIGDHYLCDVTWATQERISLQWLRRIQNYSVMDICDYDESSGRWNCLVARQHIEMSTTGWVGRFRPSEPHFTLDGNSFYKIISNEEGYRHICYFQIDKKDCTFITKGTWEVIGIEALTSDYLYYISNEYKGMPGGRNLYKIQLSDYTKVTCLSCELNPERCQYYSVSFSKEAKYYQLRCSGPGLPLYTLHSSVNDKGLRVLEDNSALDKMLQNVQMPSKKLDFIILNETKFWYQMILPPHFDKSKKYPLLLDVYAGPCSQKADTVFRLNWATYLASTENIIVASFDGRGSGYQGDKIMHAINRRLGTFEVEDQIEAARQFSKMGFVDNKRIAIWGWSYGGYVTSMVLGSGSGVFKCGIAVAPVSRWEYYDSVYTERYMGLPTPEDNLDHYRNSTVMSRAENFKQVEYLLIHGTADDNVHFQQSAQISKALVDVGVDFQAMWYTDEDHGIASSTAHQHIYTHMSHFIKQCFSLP
Chain of cathepsin L (P07711 114-333): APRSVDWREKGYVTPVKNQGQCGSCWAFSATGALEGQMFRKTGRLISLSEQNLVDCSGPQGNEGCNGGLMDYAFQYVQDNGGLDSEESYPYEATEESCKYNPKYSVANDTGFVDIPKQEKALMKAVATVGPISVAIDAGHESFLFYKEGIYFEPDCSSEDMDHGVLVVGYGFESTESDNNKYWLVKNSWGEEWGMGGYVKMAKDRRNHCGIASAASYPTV

Molecule	inhibition of DP I (in words) [1]	kinact/KI [2] [M⁻¹ s⁻¹]	IC50 [5] [µM]	IC50 DP IV [6]	IC50 [7] [µM]	other results
Cc1ccc(C(=O)ONC(=O)[C@H](Cc2ccccc2)NC(=O)CN)cc1 (as salt: TFA) [compound 12, TFA*H-Gly-L-Phe-NHO-Bz-p-CH3]	–	–	–	–	–	melting point: 98 to 101 °C
CNCC(=O)N[C@@H](Cc1ccccc1)C(=O)NOC(=O)c1ccccc1 (as salt: TFA) [compound 14, TFA*H-Sar-L-Phe-NHO-Bz]	–	–	–	–	–	melting point: 69 to 71 °C
CC(C)C[C@H](NC(=O)[C@H]1O[C@@H]1C(=O)O)C(=O)NCCCCN=C(N)N [E-64, reference compound]	weak inhibition	–	–	–	–	–
CC(=O)ONC(=O)[C@H](Cc1ccccc1)NC(=O)CN [compound 10, TFA*H-Gly-L-Phe-NHO-Ac]	–	39000	117	n.i.	156	LD50 L-929 [3]: 4.3 mg/mL; LD50 Hep-G2 [4]: 1.6 mg/mL; IC50 Cath. H [8]: n.i.
NCC(=O)N[C@@H](Cc1ccccc1)C(=O)NOC(=O)c1ccccc1 [compound 11, TFA*H-Gly-L-Phe-NHO-Bz]	–	400000	37.7	n.i.	36.9	LD50 L-929 [3]: 1.0 mg/mL; LD50 Hep-G2 [4]: 0.8 mg/mL; IC50 Cath. H [8]: n.i.
Cc1ccc(C(=O)ONC(=O)[C@H](Cc2ccccc2)NC(=O)CN)cc1 [compound 12, TFA*H-Gly-L-Phe-NHO-Bz-p-CH3]	–	19000	34	n.i.	33.1	IC50 [8]: 154 µM
NCC(=O)N[C@@H](Cc1ccccc1)C(=O)NOC(=O)c1ccc([N+](=O)[O-])cc1 [compound 13, TFA*H-Gly-L-Phe-NHO-Bz-p-NO2]	–	79000	5.31	n.i.	7.32	LD50 L-929 [3]: 2.3 mg/mL; LD50 Hep-G2 [4]: 0.8 mg/mL; IC50 [8]: 34.7 µM
CNCC(=O)N[C@@H](Cc1ccccc1)C(=O)NOC(=O)c1ccccc1 [compound 14, TFA*H-Sar-L-Phe-NHO-Bz]	–	140000	41.8	n.i.	4.61	IC50 [8]: 205 µM
CC(=O)N[C@@H](CC(C)C)C(=O)N[C@@H](CC(C)C)C(=O)N[C@H](C=O)CCCNC(=N)N [leupeptin, reference compound]	weak inhibition	–	–	–	–	–
B1	Stronger reversible inhibitors	–	–	–	–	–
B2	Stronger reversible inhibitors	–	–	–	–	–
